Publication PMC8273037 (The Journal of Antibiotics, 2021)
pEC50: −log10 of the molar value. Values after ≈ are worked out from the molar mass of the structure shown. Values joined by “and” are separate entries in the source; they are usually repeats but may differ in a detail not shown here. Equal values may be shown once. Read-outs that look alike come from different tables or passages of the source.

Experiments:
S. aureus and MRSA = settings: cited from earlier work
[1] = test system: Human papillomavirus 11, strain HE611260.1; experiment: HPV-11 NanoLuc reporter replication assay; assay type: cell-based
[2] = Cytotoxicity in C-33 A cells; assay type: cell-based; settings: human
[3] = test system: Herpes simplex virus 1, strain E-377; experiment: HSV-1 cytopathic effect reduction assay; assay type: cell-based
[4] = test system: Human cytomegalovirus, strain GDGr K17 (resistant isolate); experiment: HCMV resistant isolate cytopathic effect reduction assay; assay type: cell-based; settings: for pEC50 / EC90: Human betaherpesvirus 5, HFF; for pEC50: read-out: EC50 (reduced viral replication by 50%); for EC90: read-out: EC90 (reduced viral replication by 90%)
E. coli = settings: cited from earlier work
P. aeruginosa = settings: cited from earlier work
HIV-1 = settings: read-out: EC50, inhibition of infectivity of HIV-1 in vitro; cited from earlier work
[5] = test system: Klebsiella pneumoniae ATCC 700603 (MDR); experiment: Antibacterial growth inhibition / MIC; assay type: cell-based; settings: hit confirmation
[6] = test system: Acinetobacter baumannii ATCC 19606; experiment: Antibacterial growth inhibition / MIC; settings: hit confirmation

**Q.** For “3-amino-3,4-seco-28-amino-lup-4(23),20(29)-dien”, which MIC (S. aureus and MRSA; MRSA, bacteriostatic effect) is on record?
**A.** ≤ 0.25 µg/mL

**Q.** What does the source list for `Nc1nc2c(ncn2CCOCP(=O)(O)O)c(=O)[nH]1` [9-[2-(Phosphonomethoxy)ethyl]guanine]?
**A.** SI50 selectivity index (CC50/EC50) ([1]; HPV-11, C-33 A cells): >221; pEC50 ([1]; human papillomavirus 11, C-33-A, read-out: EC50 (reduced viral replication by 50%)): 6.17; EC90 ([1]; human papillomavirus 11, C-33-A, read-out: EC90 (reduced viral replication by 90%)): 101000 nM; CC50 [2]: > 150000 nM

**Q.** With `Nc1nc2c(ncn2COCCO)c(=O)[nH]1` [Acyclovir] as the compound, how does the “SI50 selectivity index (CC50/EC50)” value ([3]; HSV-1 E-377, HFF cells) read?
**A.** >172 and >181

**Q.** And the EC90 ([3]; Human alphaherpesvirus 1, HFF, read-out: EC90 (reduced viral replication by 90%))?
**A.** > 150000 nM

**Q.** What about the pEC50 ([3]; read-out: EC50 (reduced viral replication by 50%), HSV-1 E-377, HFF cells) of the same compound?
**A.** 6.08

**Q.** What does the source list for `Nc1ccn(C[C@@H](CO)OCP(=O)(O)O)c(=O)n1` [Cidofovir]?
**A.** SI50 selectivity index (CC50/EC50) ([4]; HCMV GDGr K17 (resistant isolate), HFF cells): 120; pEC50 [4]: 6.04; EC90 [4]: > 30000 nM

**Q.** What does the source list for `Nc1nc(O)c2ncn(COC(CO)CO)c2n1` [Ganciclovir]?
**A.** pEC50 [4]: < 3.82; EC90 [4]: > 150000 nM

**Q.** Which MIC (E. coli) does the source give for `CC1(C)CCC2(C(=O)NCCNCCN)CCC3(C)C(=CCC4C5(C)CCC(=O)C(C)(C)C5CCC43C)C2C1` (stereo not shown) [Oleanonic acid amide with diethylentriamine] here?
**A.** 25 µM (≈ 13.5 µg/mL)

**Q.** What about the MIC (P. aeruginosa) of the same compound?
**A.** 50 µM (≈ 27 µg/mL)

**Q.** With `C=C(C)[C@@H]1CC[C@]2(C(=O)O)CC[C@]3(C)[C@H](CC[C@@H]4[C@@]5(C)CC[C@H](O)C(C)(C)[C@@H]5CC[C@]43C)[C@@H]12` [betulinic acid] as the compound, how does the pEC50 (HIV-1) read?
**A.** 5.85

**Q.** Which MIC (S. aureus and MRSA; MRSA strain) does the source give for `C[C@H]1[C@H](C)CC[C@]2(C(=O)O)CC[C@]3(C)C(=CC[C@@H]4[C@@]5(C)CC[C@H](O)C(C)(C)[C@@H]5CC[C@]43C)[C@H]12` [ursolic acid] here?
**A.** 64 µg/mL (≈ 140 µM)

**Q.** With Colistin sulfate as the compound, how does the “MIC, K. pneumoniae” value [5] read?
**A.** 0.15 µM

**Q.** And the “MIC, A. baumannii” value [6]?
**A.** 0.15 µM
